Earlier results, collected in patent US9180191B2, “Treatment of suicidal ideation or behavior using inhibitors of nicotinic acetylcholine receptors” (UNIVERSITY OF SOUTH FLORIDA, priority 2009, dated 2015).
Read-outs that look alike come from different tables or passages of the source. Each block holds one compound with its values, some of them ahead of it.

Legend:
[1] = for teratogen class: FDA Approved Labeling Text
[2] = major depressive disorder, inadequate response to prior antidepressant, two 6 week studies
[3] = for risk of neuroleptic malignant syndrome: patients receiving the drug
[4] = system: brain-derived neurotrophic factor (BDNF); settings: in vivo
[5] = system: physiological response to nicotine; settings: chronic administration, rodents
[6] = not given; remark: listed apart in the source
[7] = smoking cessation
[8] = for reducing suicidal ideation versus placebo: week 8 (endpoint), p<0.001
[9] = schizophrenic patients with persistent ongoing symptoms
[10] = bipolar I or II disorder, acute bipolar depression
[11] = not given; remark: listed apart in the source
[12] = treatment resistant psychotic bipolar patients, 24 months of observation
[13] = not given; remark: listed apart in the source
[14] = system: muscarinic cholinergic receptors
[15] = system: serotonergic, dopaminergic, and a-adrenergic receptors
[16] = clinical trials in schizophrenia
[17] = bipolar I, manic and mixed symptoms

SMILES: O=C1CCc2ccc(OCCCCN3CCN(c4cccc(Cl)c4Cl)CC3)cc2N1 [aripiprazole]
efficacy versus placebo in acute use (bipolar I, manic and mixed symptoms, 3 week trials): rapid and significant advantage compared to placebo | efficacy versus placebo as adjunctive therapy (with lithium or valproate) (bipolar I, manic or mixed state, inadequate improvement on mood stabilizer monotherapy): superior to placebo | profile and tolerability with long-term use (long-term use up to 6 months): favorable profile and tolerability | teratogen class [1]: Class-C teratogen | efficacy versus placebo as adjunctive therapy with antidepressants [2]: superior to placebo | most commonly observed side effects ([3]; clinical trials in mood disorders (bipolar I disorder and major depressive disorder)): akathisia, sedation, restlessness, tremor, insomnia, constipation, fatigue, blurred vision and extrapyramidal disorder | risk of neuroleptic malignant syndrome [3]: extremely rare

SMILES: O=C([O-])[O-].[Li+].[Li+] [lithium, Lithium carbonate]
effect on brain BDNF levels [4]: increase brain BDNF levels | physiological response to nicotine [5]: decreases their physiological response to nicotine | fatality rate due to suicide after discontinuing lithium compared to the rate during lithium maintenance ([6]; after discontinuing lithium): 12.6 times higher | incidence of attempted and completed suicide compared to those who did not receive lithium ([6]; long-term lithium treatment): 13 fold lower | effect on suicidality ([6]; recurrent unipolar major depressive disorder and bipolar disorder): consistently reduces suicidality | use in pregnancy ([1]; pregnancy): associated with neural tube defects | most commonly observed side effects ([3]; lithium, population not given): tremor, diarrhea, polydipsia, polyuria and nausea

SMILES: c1cnc2cc3c(cc2n1)[C@@H]1CNC[C@H]3C1 [varenicline]
risk of suicidality relative to other treatments (i.e., buproprion, Zyban) [7]: increase in the risk of suicidality

The next lines start with results.

risk of neuroleptic malignant syndrome [3]: extremely rare
SMILES: OCCOCCN1CCN(C2=Nc3ccccc3Sc3ccccc32)CC1 [quetiapine]
reducing suicidal ideation versus placebo ([8]; 300 mg/day): more effective than placebo | reducing suicidal ideation versus placebo ([8]; 600 mg/day): more effective than placebo | mean percent reduction in suicidal thoughts ([8]; 542 outpatients, bipolar I and II depression, placebo approximately 30%): approximately 60% | reduction in suicidal ideation relative to placebo, item 10 on the MADRS ([8]; bipolar I and II depression): approximately twice | teratogen class [1]: Class-C teratogen | depressive symptoms versus haloperidol [9]: reduce depressive symptoms more than haloperidol | reducing depressive and anxiety symptoms versus placebo [10]: superior to placebo | efficacy versus placebo in combination with divalproex ([11]; adolescent patients with acute bipolar I mania): superior to placebo | efficacy versus placebo in combination with lithium or divalproex ([11]; hospitalized adult patients with acute mania): superior to placebo | efficacy versus placebo as monotherapy in acute bipolar mania ([11]; hospitalized patients with bipolar I disorder, two 12-week trials): superior to placebo | most commonly observed side effects [3, 16]: anxiety, somnolence, EPS, dizziness, constipation, nausea, dyspepsia, rhinitis, rash, and tachycardia | suicidality [12]: effective in lowering suicidality

affinity for muscarinic cholinergic receptors [14]: no appreciable affinity | affinity for serotonergic, dopaminergic, and a-adrenergic receptors [15]: high affinity | risk of neuroleptic malignant syndrome [3]: extremely rare
SMILES: CN1CC2c3ccccc3Oc3ccc(Cl)cc3C2C1 (stereo not shown) [asenapine]
efficacy versus olanzapine in extended use [13, 17]: efficacy comparable to olanzapine | efficacy versus placebo in acute use [13, 17]: rapid and significant advantage compared to placebo | efficacy versus placebo as adjunctive therapy ([13]; bipolar patients with inadequate improvement on mood stabilizer monotherapy): superior to placebo | profile and tolerability with long-term use ([13]; long-term use): favorable profile and tolerability | teratogen class [1]: Class-C teratogen | most commonly observed side effects [3, 16]: anxiety, somnolence, EPS, dizziness, constipation, nausea, dyspepsia, rhinitis, rash, and tachycardia
